Converted amounts (≈) assume the structure as drawn.
How the values were obtained:
[1] = Concentration (MIC), required to reduce virus-induced cytopathogenicity in Primary rabbit kidney (PRK ) cells against Vesicular stomatitis virus type 1; format: functional; settings: Oryctolagus cuniculus
Raji = assay: Concentration required to reduce the viability of Human B-lymphoblast Raji cells; format: functional, cell-based
Vero [2] = assay: Concentration (MIC), which is required to reduce virus-induced cytopathogenicity in African green monkey kidney (Vero B) cells against forest virus; format: functional; settings: Chlorocebus sabaeus
[3] = Concentration (MCC) required to cause a microscopically detectable alteration of normal cell morphology, in Primary rabbit kidney (PRK) cells; format: functional, Oryctolagus cuniculus
[4] = Concentration (MIC), which is required to reduce virus-induced cytopathogenicity in Primary rabbit kidney (PRK ) cells against Vaccinia virus; format: functional; settings: Oryctolagus cuniculus
L1210 = assay: Concentration required to reduce the viability of Murine leukemia L1210 cells; format: functional, cell-based; settings: Mus musculus
Vero [5] = assay: Concentration (MIC), which is required to reduce virus-induced cytopathogenicity in African green monkey kidney (Vero B) cells against Sindbis virus; format: functional; settings: Chlorocebus sabaeus
MOLT-4F = assay: Concentration required to reduce the viability of Human T-lymphoblast Molt/4F cells; format: functional, cell-based
[6] = Concentration (MIC)required to reduce virus-induced cytopathogenicity in Primary rabbit kidney (PRK ) cells against HSV-1 with a strain KOS; format: functional; settings: Oryctolagus cuniculus
[7] = Concentration (MIC)required to reduce virus-induced cytopathogenicity in Primary rabbit kidney (PRK ) cells against HSV-2 with a strain G; format: functional; settings: Oryctolagus cuniculus
Vero [8] = assay: Concentration (MIC), which is required to reduce virus-induced cytopathogenicity in African green monkey kidney (Vero B) cells against Reo-virus-1; format: functional; settings: Chlorocebus sabaeus
MT4 = assay: Concentration required to reduce the viability of Human T-lymphoblast MT-4 cells; format: functional, cell-based
[9] = Concentration (MIC), required to reduce virus-induced cytopathogenicity in Primary rabbit kidney (PRK ) cells against Vesicular stomatitis virus type 2; format: functional; settings: Oryctolagus cuniculus
Vero [10] = assay: Concentration (MCC) required to cause a microscopically detectable alteration of normal cell morphology, African green monkey kidney (Vero B) cells; format: functional; settings: Chlorocebus sabaeus
Vero [11] = assay: Concentration (MIC), which is required to reduce virus-induced cytopathogenicity in African green monkey kidney (Vero B) cells against para-influenza virus-3; format: functional; settings: Chlorocebus sabaeus
HeLa [12] = assay: Concentration (MIC), which is required to reduce virus-induced cytopathogenicity in Primary rabbit kidney (PRK ) cells against Polio virus type-1; format: functional; settings: Homo sapiens
HeLa [13] = assay: Concentration (MCC) required to cause a microscopically detectable alteration of normal cell morphology, in HeLa cells; format: functional; settings: Homo sapiens
HeLa [14] = assay: Concentration (MIC), which is required to reduce virus-induced cytopathogenicity in HeLa cells against Polio virus type-1; format: functional; settings: Homo sapiens
Vero [15] = assay: Concentration (MIC), which is required to reduce virus-induced cytopathogenicity in African green monkey kidney (Vero B) cells against Coxsackie virus-B4; format: functional, Chlorocebus sabaeus
[16] = Concentration (MIC), which is required to reduce virus-induced cytopathogenicity in HeLa cells of Primary rabbit kidney (PRK ) cells against DNA viruses including Vaccinia virus; format: functional; settings: Oryctolagus cuniculus
Vero [17] = assay: Concentration (MIC), which is required to reduce virus-induced cytopathogenicity in African green monkey kidney (Vero B) cells against RNA viruses including Coxsackie virus-B4; format: functional; settings: Chlorocebus sabaeus
[18] = Concentration (MIC), required to reduce virus-induced cytopathogenicity in HeLa cells of Primary rabbit kidney (PRK ) cells against Vesicular stomatitis virus type 1; format: functional; settings: Oryctolagus cuniculus
[19] = Concentration (MIC), required to reduce virus-induced cytopathogenicity in HeLa cells of Primary rabbit kidney (PRK ) cells against Vesicular stomatitis virus type 2; format: functional; settings: Oryctolagus cuniculus
HeLa [20] = assay: Concentration (MIC), which is required to reduce virus-induced cytopathogenicity in HeLa cells o against Polio virus type-1; format: functional; settings: Homo sapiens
[21] = Concentration (MIC)required to reduce virus-induced cytopathogenicity in Primary rabbit kidney (PRK ) cells against HSV-2 with strain G; format: functional; settings: Oryctolagus cuniculus
Vero [22] = assay: Concentration (MIC), which is required to reduce virus-induced cytopathogenicity in HeLa cells of African green monkey kidney (Vero B) cells against RNA viruses including para-influenza virus-3; format: functional; settings: Chlorocebus sabaeus
[23] = Concentration (MIC)required to reduce virus-induced cytopathogenicity in Primary rabbit kidney (PRK ) cells against including HSV-2 with a strain G; format: functional; settings: Oryctolagus cuniculus
[24] = Chlorocebus sabaeus, read-out: MIC

Row | Compound | MIC [1] [µg/mL] | IC50 (Raji) [µg/mL] | MIC (Vero [2]) [µg/mL] | MCC [3] [µg/mL] | MIC [4] [µg/mL] | IC50 (L1210) [µg/mL] | MIC (Vero [5]) [µg/mL] | IC50 (MOLT-4F) [µg/mL] | MIC [6] [µg/mL] | MIC [7] [µg/mL] | MIC (Vero [8]) [µg/mL] | IC50 (MT4) [µg/mL] | MIC [9] [µg/mL] | MCC (Vero [10]) [µg/mL] | MIC (Vero [11]) [µg/mL] | MCC (HeLa [13]) [µg/mL] | MIC (HeLa [14]) [µg/mL] | MIC (Vero [15]; [24]) [µg/mL] | also measured
1 | Nc1nc(O)c2ncn([C@@H]3O[C@H](CO)[C@@H](F)[C@H]3O)c2n1 | > 200 | 29 (≈ 102 µM) | 40 (≈ 140 µM) | 200 | 10 (≈ 35.1 µM) | 5 (≈ 17.5 µM) | 40 (≈ 140 µM) | 75 (≈ 263 µM) | > 100 | > 100 | > 200 | > 100 | > 200 | 400 | > 100 | > 400 | – | – | MIC (HeLa [12]): 150 µg/mL (≈ 526 µM)
2 | O=c1ccn([C@@H]2O[C@H](CO)[C@@H](F)[C@H]2O)c(=O)[nH]1 | > 400 | > 100 | > 400 | >400 | – | > 100 | 300 (≈ 1220 µM) | > 100 | > 400 | > 400 | 150 (≈ 609 µM) | 6.9 (≈ 28 µM) | > 400 | > 400 | > 400 | > 400 | 150 (≈ 609 µM) | 300 (≈ 1220 µM) | MIC [16]: > 400 µg/mL; MIC (Vero [17]): 300 µg/mL (≈ 1220 µM)
3 | Nc1ncnc2c1ncn2[C@@H]1O[C@H](CO)[C@@H](F)[C@H]1O | – | 3.9 (≈ 14.5 µM) | 4 (≈ 14.9 µM) | >40 | 2 (≈ 7.43 µM) | 1.6 (≈ 5.94 µM) | 4 (≈ 14.9 µM) | 28 (≈ 104 µM) | > 10 | > 10 | 1 (≈ 3.71 µM) | 0.22 (≈ 0.817 µM) | > 10 | 40 | > 4 | 40 | 4 (≈ 14.9 µM) | – | MIC [18]: > 40 µg/mL
4 | Nc1ccn([C@@H]2O[C@H](CO)[C@H](F)[C@H]2O)c(=O)n1 | > 400 | 98 (≈ 400 µM) | > 400 | >400 | > 400 | 39 (≈ 159 µM) | 300 (≈ 1220 µM) | 65 (≈ 265 µM) | > 400 | > 400 | 150 (≈ 612 µM) | 7.9 (≈ 32.2 µM) | – | > 400 | > 400 | > 400 | – | 150 (≈ 612 µM) | MIC [19]: 300 µg/mL (≈ 1220 µM); MIC (Vero [15]): 300 µg/mL (≈ 1220 µM); MIC (HeLa [20]): 150 µg/mL (≈ 612 µM)
5 | Cc1cn([C@@H]2O[C@H](CO)[C@@H](F)[C@H]2N=[N+]=[N-])c(=O)[nH]c1=O | > 400 | – | > 400 | >400 | > 400 | – | > 400 | – | > 400 | > 400 | > 400 | – | > 400 | > 400 | > 400 | > 400 | > 400 | > 400 | –
6 | [N-]=[N+]=NC1C(F)C(CO)OC1n1ccc(N)nc1=O (centres undefined) | > 300 | – | > 400 | >400 | > 400 | – | > 400 | – | > 400 | > 400 | > 400 | – | > 400 | > 400 | > 400 | > 400 | > 400 | > 400 | –
7 | Cc1cn([C@H]2O[C@H](CO)[C@@H](F)[C@H]2N=[N+]=[N-])c(=O)[nH]c1=O | < 400 | – | > 400 | >400 | > 400 | – | > 400 | – | > 400 | – | > 400 | – | > 400 | > 400 | – | > 400 | > 400 | > 400 | MIC [21]: > 400 µg/mL; MIC (Vero [22]): > 400 µg/mL
8 | [N-]=[N+]=NC1C(F)C(CO)OC1n1cnc2c(N)ncnc21 (centres undefined) | – | – | > 200 | >400 | 300 (≈ 1020 µM) | – | > 200 | – | > 400 | – | > 200 | – | > 200 | > 400 | > 200 | > 400 | > 200 | 300 (≈ 1020 µM) | MIC (Vero [15]): >200 µg/mL; MIC [23]: > 200 µg/mL; MIC [18]: 300 µg/mL (≈ 1020 µM)
